In brackets after ≈: the same amount, converted by molar mass.
Key:
[1] = Solubility at 37° C. in aqueous and biorelevant media; format: physicochemical; conditions: for solubility at 2 h / solubility at 24 h: 37 °C, thermodynamic from solid; for solubility at 2 h / solubility at 24 h / Solubility (mg/ mL) 2 h / Solubility (mg/ mL) 24 h: target 250 mg/mL (in free form); for pH of supernatant at 24 h / Solubility (mg/ mL) 2 h / Solubility (mg/ mL) 24 h: listed as L-Tartaric acid cocrystal Pattern A, hydrate
Experimental: To prepare the samples of (S)-4-((2-methoxyethyl)(4-(5,6,7,8-tetrahydro-1,8-naphthyridin-2-yl)butyl)amino)-2-(quinazolin-4-ylamino)butanoic acid L-tartaric acid cocrystal Pattern A, 80.6 mg was weighed into a 2 mL glass vial. Next, 0.18 mL of solubility medium was added. The salt amount used is equivalent to 45 mg of the amorphous free form. Obtained suspensions/solutions were stirred at 37° C. at 400 rpm and sampled at 2 h and at 24 h. The samples were centrifuged at 37° C. at 14,000 rpm for 5 min. Supernatants were analyzed by HPLC and pH meter for solubility and pH value, respectively. […]

[2] = Hygroscopicity by dynamic vapor sorption (DVS); format: physicochemical
Experimental: Dynamic vapor sorption of Pattern A was studied using a Surface Measurement Systems (SMS) Intrinsic instrument. Total gas flow was 200 sccm. The oven temperature was 25° C. Water was used as the solvent, in a cycle of 40-95-0-95-40% RH. The stage step was 10% RH and equilibrium was within 0.002 dm/dt (%/min) (minimum dm/dt stability duration: 60 min; maximum dm/dt stage time: 360 min). The sample mass was about 5-50 mg.
The water sorption and desorption behavior of (S)-4-((2-methoxyethyl)(4-(5,6,7,8-tetrahydro-1,8-naphthyridin-2-yl)butyl)amino)-2-(quinazolin-4-ylamino)butanoic acid L-tartaric acid cocrystal Pattern A was investigated by DVS at 25° C. with a cycle of 40-95-0-95-40% RH. XRPD was measured after the DVS test to determine form change. […] It dehydrated in 10% RH and below.

[3] = FaSSGF (fasted state simulated gastric fluid), pH 1.6, fassgf or other biorelevant, FaSSGF, pH 1.6, 37° C.
[4] = FeSSIF-v1 (fed state simulated intestinal fluid), pH 5, fessif, FeSSIF-v1, pH 5.0, 37° C.
[5] = pH 1.2 HCl buffer, pH 1.2, simulated gastric fluid
[6] = pH 4.5 acetate buffer (50 mM), pH 4.5, aqueous buffer
[7] = pH 6.8 phosphate buffer (50 mM), 37° C.
[8] = 10% relative humidity at 25° C.
[9] = 20% relative humidity at 25° C.
[10] = 30% relative humidity at 25° C.
[11] = 40% relative humidity at 25° C.
[12] = 50% relative humidity at 25° C.
[13] = 60% relative humidity at 25° C.
[14] = 70% relative humidity at 25° C.
[15] = 80% relative humidity at 25° C.
[16] = 90% relative humidity at 25° C.
[17] = 95% relative humidity at 25° C.

## COCCN(CCCCc1ccc2c(n1)NCCC2)CC[C@H](Nc1ncnc2ccccc12)C(=O)O [Pattern A, (S)-4-((2-methoxyethyl)(4-(5,6,7,8-tetrahydro-1,8-naphthyridin-2-yl)butyl)amino)-2-(quinazolin-4-ylamino)butanoic acid]
[1]; [3]
  solubility at 2 h: 206 mg/mL (≈ 419 mM)
  solubility at 24 h: 224 mg/mL (≈ 455 mM)
[1]; FaSSGF, pH 1.6, 37° C.
  pH of supernatant at 24 h: (1.6)
[1]; FaSSIF-v1, pH 6.5, 37° C.
  Solubility (mg/ mL) 2 h: 84.1 mg/mL (≈ 171 mM)
  Solubility (mg/ mL) 24 h: 63.2 mg/mL (≈ 128 mM)
  pH of supernatant at 24 h: (6.6)
[1]; [4]
  solubility at 2 h: 203 mg/mL (≈ 413 mM)
  solubility at 24 h: 217 mg/mL (≈ 440 mM)
[1]; FeSSIF-v1, pH 5.0, 37° C.
  pH of supernatant at 24 h: (5.0)
[1]; Water, 37° C.
  pH of supernatant at 24 h: (3.2)
[1]; pH 1.2 HCl buffer, 37° C.
  pH of supernatant at 24 h: (1.4)
[1]; [5]
  solubility at 2 h: 215 mg/mL (≈ 436 mM)
  solubility at 24 h: 222 mg/mL (≈ 451 mM)
[1]; pH 4.5 acetate buffer (50 mM), 37° C.
  pH of supernatant at 24 h: (4.4)
[1]; [6]
  solubility at 2 h: 214 mg/mL (≈ 435 mM)
  solubility at 24 h: 220 mg/mL (≈ 448 mM)
[1]; [7]
  Solubility (mg/ mL) 2 h: 28.4 mg/mL (≈ 57.7 mM)
  Solubility (mg/ mL) 24 h: 56.4 mg/mL (≈ 114 mM)
  pH of supernatant at 24 h: (6.8)
[1]; water
  solubility at 2 h: 207 mg/mL (≈ 421 mM)
  solubility at 24 h: 218 mg/mL (≈ 442 mM)
[2]; 0% relative humidity at 25° C.
  1st desorp. Weight % change: 0.0%
  2nd sorp. Weight % change: 0.0%
[2]; [8]
  1st desorp. Weight % change: 5.2%
  2nd sorp. Weight % change: 4.7%
[2]; [9]
  1st desorp. Weight % change: 7.4%
  2nd sorp. Weight % change: 7.1%
[2]; [10]
  1st desorp. Weight % change: 8.3%
  2nd sorp. Weight % change: 8.0%
[2]; [11]
  1st desorp. Weight % change: 8.9%
  1st sorp. Weight % change: 8.5%
  2nd desorp. Weight % change: 8.9%
  2nd sorp. Weight % change: 8.7%
[2]; [12]
  1st desorp. Weight % change: 9.4%
  1st sorp. Weight % change: 9.0%
  2nd desorp. Weight % change: 9.4%
  2nd sorp. Weight % change: 9.2%
[2]; [13]
  1st desorp. Weight % change: 9.8%
  1st sorp. Weight % change: 9.6%
  2nd desorp. Weight % change: 9.9%
  2nd sorp. Weight % change: 9.7%
[2]; [14]
  1st desorp. Weight % change: 10.4%
  1st sorp. Weight % change: 10.1%
  2nd desorp. Weight % change: 10.4%
  2nd sorp. Weight % change: 10.2%
[2]; [15]
  1st desorp. Weight % change: 11.1%
  1st sorp. Weight % change: 10.7%
  2nd desorp. Weight % change: 11.1%
  2nd sorp. Weight % change: 10.9%
[2]; [16]
  1st desorp. Weight % change: 12.6%
  1st sorp. Weight % change: 12.2%
  2nd desorp. Weight % change: 12.6%
  2nd sorp. Weight % change: 12.1%
[2]; [17]
  1st desorp. Weight % change: 18.7%
  1st sorp. Weight % change: 18.7%
  2nd desorp. Weight % change: 16.1%
  2nd sorp. Weight % change: 16.1%
[2]; after cycle 40-95-0-95-40% RH, 25° C.
  XRPD following the DVS experiments: no form change
[2]; at 70% RH and below, 25° C.
  hygroscopicity: slightly hygroscopic
[2]; from 40% RH to 70% RH, 25° C.
  water uptake: about 1.6%
[2]; from 80% RH to 95% RH, 25° C.
  water uptake: about 8.0%
[2]; in 10% RH and below, 25° C.
  behaviour at low humidity: dehydrated
[2]; in 80% RH and above, 25° C.
  hygroscopicity: moderately hygroscopic
[2]; relative humidity below 10% RH, water absorbed back at 10% RH and above
  water loss on dehydration: about 5%

Source: patent US20250197393A1, “INTEGRIN INHIBITOR AND USES THEREOF” (Pliant Therapeutics, Inc., priority 2023, published 2025)
